Reference: US20260070951A1, “MICROPAKINE K2 ANTIMICROBIAL POLYPEPTIDE, COMPOSITION COMPRISING IT AND USE FOR TREATING BACTERIAL INFECTIONS” (priority 2022, published 2026)

How the values were obtained:
Experiment in all cases: Inhibition zone test of compositions on Mueller Hinton lawn
Assay type in all cases: cell-based
B. cereus = conditions: MPK2 200 AU/mL, 24 hours
Description: (§1) Different compositions comprising the MicroPacin K2 polypeptide were prepared in different vehicles: 10% w/v methanol, 10% w/v glycerol, 0.5% w/v polyethylene glycol, and water. In the case of the MicroPacin K2 polypeptide, it was used at a concentration of 200 AU/mL in each composition.
(§2) A 5 μL aliquot of each of the prepared compositions was taken and added to a plate with Mueller Hinton medium containing the sensitivity indicator bacteria, previously seeded in the form of a lawn. The plates were then incubated for 24 hours, and the antibacterial activity of the compositions was observed according to the appearance and size of the inhibition zone. This test, in turn, was performed under the same conditions with the commercial bacteriocin Nisin as a comparator agent, which is considered a gold standard bacteriocin, for being approved by the FDA (Food and Drug Administration).
(§3) In this example, the antibacterial effect of compositions comprising the polypeptide MicroPacin K2 and an additional antibacterial agent, including nisin (5,000 AU/mL), ampicillin (0.01 μg/mL), and tetracycline (0.05 μg/mL), is evaluated. The assay was performed using distilled water as the vehicle for the composition. The final concentration of MicroPacin K2 in the compositions evaluated was 200 AU/mL.

C. freundii = conditions: MPK2 200 AU/mL, 24 hours
Description: as §1, §2, §3

E. coli DH5α = conditions: MPK2 200 AU/mL, 24 hours
Description: as §1, §2, §3

E. coli O157:H7 = conditions: for Zone of growth inhibition: MPK2 200 AU/mL, 24 hours
Description: as §1, §2, §3

L. monocytogenes = conditions: MPK2 200 AU/mL, 24 hours
Description: as §1, §2, §3

S. aureus = conditions: MPK2 200 AU/mL, 24 hours
Description: as §1, §2, §3

S. saprophyticus = conditions: MPK2 200 AU/mL, 24 hours
Description: as §1, §2, §3

S. sonnei = conditions: for Zone of growth inhibition: S. sonnei, MPK2 200 AU/mL, 24 hours
Description: as §1, §2, §3

Nisin [reference compound]
0 mm: Zone of growth inhibition (E. coli O157:H7; vehicle Glycerol 10%) | Zone of growth inhibition (E. coli O157:H7; vehicle H2O) | Zone of growth inhibition (E. coli O157:H7; vehicle Methanol 10%) | Zone of growth inhibition (E. coli O157:H7; vehicle PEG 0.5%) | Zone of growth inhibition (S. sonnei; vehicle Glycerol 10%) | Zone of growth inhibition (S. sonnei; vehicle H2O) | Zone of growth inhibition (S. sonnei; vehicle Methanol 10%) | Zone of growth inhibition (S. sonnei; vehicle PEG 0.5%)
10.0 mm: Zone of growth inhibition (S. saprophyticus; vehicle Glycerol 10%) | Zone of growth inhibition (S. saprophyticus; vehicle H2O) | Zone of growth inhibition (S. saprophyticus; vehicle Methanol 10%)
7.0 mm: Zone of growth inhibition (C. freundii; vehicle PEG 0.5%)
8.0 mm: Zone of growth inhibition (B. cereus; vehicle H2O) | Zone of growth inhibition (B. cereus; vehicle Methanol 10%) | Zone of growth inhibition (C. freundii; vehicle Glycerol 10%) | Zone of growth inhibition (C. freundii; vehicle H2O) | Zone of growth inhibition (C. freundii; vehicle Methanol 10%) | Zone of growth inhibition (E. coli DH5α; vehicle Glycerol 10%) | Zone of growth inhibition (E. coli DH5α; vehicle H2O) | Zone of growth inhibition (E. coli DH5α; vehicle Methanol 10%) | Zone of growth inhibition (E. coli DH5α; vehicle PEG 0.5%) | Zone of growth inhibition (S. aureus; vehicle Methanol 10%) | Zone of growth inhibition (S. aureus; vehicle PEG 0.5%)
9.0 mm: Zone of growth inhibition (B. cereus; vehicle Glycerol 10%) | Zone of growth inhibition (B. cereus; vehicle PEG 0.5%) | Zone of growth inhibition (L. monocytogenes; vehicle Glycerol 10%) | Zone of growth inhibition (L. monocytogenes; vehicle H2O) | Zone of growth inhibition (L. monocytogenes; vehicle Methanol 10%) | Zone of growth inhibition (L. monocytogenes; vehicle PEG 0.5%) | Zone of growth inhibition (S. aureus; vehicle Glycerol 10%) | Zone of growth inhibition (S. aureus; vehicle H2O) | Zone of growth inhibition (S. saprophyticus; vehicle PEG 0.5%)
not able to inhibit their growth: Inhibition of growth (inhibition halo) (E. coli O157:H7; compositions) | Inhibition of growth (inhibition halo) (S. sonnei; Shigella sonnei, compositions)
